The text below walks through data of patent US20120095055A1, “HEXAHYDROCYCLOPENTYL[f]INDAZOLE 5-HYDROXYMETHYL ETHANOLS AND DERIVATIVES THEREOF AS SELECTIVE GLUCOCORTICOID RECEPTOR MODULATORS” (Merck Sharp & Dohme, Corp., priority 2009, published 2012).

The structures appear in SMILES notation. pEC50: −log10 of the molar value.

The test deals with T1, human GR (Homo sapiens, UniProt P04150).
T1 construct: naturally expresses the human GR; endogenous in cells
T1 sequence (P04150 1-777): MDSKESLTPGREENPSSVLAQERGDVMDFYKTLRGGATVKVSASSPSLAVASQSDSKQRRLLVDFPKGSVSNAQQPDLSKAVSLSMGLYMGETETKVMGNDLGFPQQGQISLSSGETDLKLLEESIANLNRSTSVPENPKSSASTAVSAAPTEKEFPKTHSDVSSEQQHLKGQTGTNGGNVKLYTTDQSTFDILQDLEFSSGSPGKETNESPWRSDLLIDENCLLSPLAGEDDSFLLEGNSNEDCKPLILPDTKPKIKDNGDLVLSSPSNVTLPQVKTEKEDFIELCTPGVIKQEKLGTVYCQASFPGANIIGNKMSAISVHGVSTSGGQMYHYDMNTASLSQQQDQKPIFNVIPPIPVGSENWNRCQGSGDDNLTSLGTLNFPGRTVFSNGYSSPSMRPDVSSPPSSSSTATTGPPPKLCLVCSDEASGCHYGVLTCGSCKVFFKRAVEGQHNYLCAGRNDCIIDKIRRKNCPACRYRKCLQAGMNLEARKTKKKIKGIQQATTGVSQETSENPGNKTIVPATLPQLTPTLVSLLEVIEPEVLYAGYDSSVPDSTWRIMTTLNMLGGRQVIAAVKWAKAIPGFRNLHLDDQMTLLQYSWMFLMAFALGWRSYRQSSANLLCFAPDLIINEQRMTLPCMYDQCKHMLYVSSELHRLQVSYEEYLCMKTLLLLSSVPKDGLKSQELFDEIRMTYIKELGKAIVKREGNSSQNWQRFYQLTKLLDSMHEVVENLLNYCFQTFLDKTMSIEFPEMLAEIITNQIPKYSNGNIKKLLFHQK
Nature of the test: Trans-Activation Modulation of Glucocorticoid Receptor Assay (GRAMMER), MMTV-LUC reporter in A549 cells. Type of test: cell-based. The following applies: for Transactivation A549 Cells GRAMMER Emax (%): Emax relative to the activity obtained with 300 nM dexamethasone; for pEC50: inflection point (IP), MMTV-LUC reporter, read-out: Transactivation A549 Cells GRAMMER IP; for Emax: A549, Emax relative to the activity obtained with 300 nM dexamethasone, read-out: Transactivation A549 Cells GRAMMER Emax (%). An excerpt: This assay assesses the ability of test compounds to control transcription from the MMTV-LUC reporter gene in lung adenocarcinoma A549 cells or HeLa cells, a human […] cell line that naturally expresses the human GR. The assay measures induction of a modified MMTV LTR/promoter linked to the LUC reporter gene.
The routine transient assay consists of plating 7,000-25,000 cells/well of a white, clear-bottom 96-well plate. Alternatively, 384-well plates can be used at a cell concentration of 10,000/well. The media that the cells are plated in is “exponential growth medium” which consists of phenol red-free RPMI1640 containing 10% FBS, 4 mM L-glutamine, 20 mM HEPES, 10 ug/mL human insulin, and 20 ug/mL gentamicin. Incubator conditions are 37° C. and 5% CO2. The transfection is done in batch mode. The cells are trypsinized and counted to the right cell number in the proper amount of fresh media. It is then gently mixed with the FuGene6/DNA mix and plated onto the 96 or 384-well plate, all the wells receive 100 uL or 40 uL, respectively, of medium+lipid/DNA complex then incubated 37° C. overnight. The transfection cocktail consists of serum-free OptiMEM, FuGene6 reagent and DNA. The manufacturer's (Roche Biochemical) protocol for cocktail setup is as follows: The lipid to DNA ratio is approximately 2.5:1 and the incubation time is 20 min at room temperature. Sixteen to 24 hours after transfection, the cells are treated with dexamethasone to a final concentration of 10 nM as well as the compound of interest, such that final DMSO (vehicle) concentration is equal to or less than 1%. Each plate also contains samples that are treated with 10 nM dexamethasone alone, which is used as the 100% activity control. The cells are exposed to the compounds for 24 hours. After 24 hours, the cells are lysed by a Promega cell culture lysis buffer for approximately 30 min and then the luciferase activity in the extracts is assayed in the 96-well format luminometer. In 384-well format, Steady-Glo (Promega) or Steady-Lite (PerkinElmer) can be used by adding an equal volume of reagent to the media present in each well. Activity induced by 10 nM dexamethasone alone is set at 100% activity. Antagonist activity is calculated by determining the decrease in dexamethasone-induced activity in response to compound treatment relative to samples that were treated with dexamethasone alone. Results are expressed as % inhibition of 10 nM dexamethasone activity or as fold of 10 nM dexamethasone activity. This transactivation assay can be performed in an agonist and antagonist mode to identify these different activities.
Activity of test compounds is calculated as the Emax relative to the activity obtained with 300 nM dexamethasone. Activity of test compounds is calculated as the Emax relative to the activity obtained with 300 nM DEX. The exemplified tissue selective glucocorticoid receptor modulators of the present invention display agonist activity in this assay of greater than 5% and less than 100%, and maximal transactivation activity less then maximal transrepression activity. […]

`C[C@]12Cc3cnn(-c4cccc(F)c4)c3C=C1CC[C@@]2(CO)CC(O)c1ccccn1` (single isomer, unassigned) [Example 19b]: the “Transactivation A549 Cells GRAMMER Emax (%)” value was 24.2% and the pEC50 was 7.02.
For `COc1cccnc1C(O)C[C@]1(CO)CCC2=Cc3c(cnn3-c3cccc(F)c3)C[C@@]21C` (single isomer, unassigned) [Example 26b], in that order: 4.3% and 6.18.
The matching figures for `C[C@]12Cc3cnn(-c4cccc(F)c4)c3C=C1CC[C@@]2(CO)CC(O)c1cccnc1` (single isomer, unassigned) [Example 27a]: 6.8% and 6.45.
The Emax is the maximal effect, on the per cent scale that the assay sets. Turning to `C[C@]12Cc3cnn(-c4ccc(F)cc4)c3C=C1CC[C@@]2(CO)CC(O)C1CCCCC1` (single isomer, unassigned) [Example 18a, 1-cyclohexyl-2-[(4αS)-1-(4-fluorophenyl)-5-(hydroxymethyl)-4α-methyl-1,4,4α,5,6,7-hexahydrocyclopenta[f]indazol-5-yl]ethanol], the Emax worked out at 55.3% and the pEC50 was 7.65.
Regarding `Cc1cccc(C(O)C[C@]2(CO)CCC3=Cc4c(cnn4-c4ccc(F)cc4)C[C@@]32C)c1` (single isomer, unassigned) [Example 5b], the “Transactivation A549 Cells GRAMMER Emax (%)” value is given as 58.4% and the pEC50 was 7.63.
The matching figures for `Cc1ccc(C(O)C[C@]2(CO)CCC3=Cc4c(cnn4-c4ccc(F)cc4)C[C@@]32C)cc1` (single isomer, unassigned) [Example 2a]: 46.6% and 6.31.
As to `CC(C)C(O)C[C@]1(CO)CCC2=Cc3c(cnn3-c3ccc(F)cc3)C[C@@]21C` (single isomer, unassigned) [Example 14a], the Emax worked out at 25% and the pEC50 is 6.32.
In the case of `C[C@]12Cc3cnn(-c4ccccc4)c3C=C1CC[C@@]2(CO)CC(O)c1ccccn1` (single isomer, unassigned) [Example 23a], the maximal effect (Emax) was determined as 39.4% and the pEC50 was 7.30.
Consider `C[C@]12Cc3cnn(-c4ccc(F)cc4)c3C=C1CC[C@@]2(CO)CC1OC(=O)c2ccccc21` (single isomer, unassigned) [Example 12b], for which the “Transactivation A549 Cells GRAMMER Emax (%)” value is recorded as 54.2% and the pEC50 was 7.48.
As to `C[C@]12Cc3cnn(-c4ccccc4)c3C=C1CC[C@@]2(CO)CC(O)c1cccnc1` (single isomer, unassigned) [Example 29a], the “Transactivation A549 Cells GRAMMER Emax (%)” value was found to be 30.7% and the pEC50 was 6.77.
Take `C[C@]12Cc3cnn(-c4ccc(F)cc4)c3C=C1CC[C@@]2(CO)CC(O)c1ccccn1` (single isomer, unassigned) [Example 1a]: the “Transactivation A549 Cells GRAMMER Emax (%)” value amounted to 83.9% and the pEC50 was 8.25.
For `C[C@]12Cc3cnn(-c4cccc(F)c4)c3C=C1CC[C@@]2(CO)CC(O)c1cccnc1` (single isomer, unassigned) [Example 27b], in that order: 15.4% and 6.20.
For `C[C@]12Cc3cnn(-c4ccc(F)cc4)c3C=C1CC[C@@]2(CO)CC(O)c1cc(F)cc(Cl)c1` (single isomer, unassigned) [Example 6a], in that order: 62.4% and 7.52.
As for `C[C@]12Cc3cnn(-c4ccc(F)cc4)c3C=C1CC[C@@]2(CO)CC1OC(=O)c2ccccc21` (stereo partly drawn) [Example 11, 3-{[(4αS,5R)-1-(4-fluorophenyl)-5-(hydroxymethyl)-4α-methyl-1,4,4α,5,6,7,7a,8-octahydrocyclopenta[f]indazol-5-yl]methyl}-2-benzofuran-1(3H)-one], the Emax was 41.8% and the pEC50 was 6.48.
The matching figures for `C[C@]12Cc3cnn(-c4ccc(F)cc4)c3C=C1CC[C@@]2(CO)CC1OC(=O)c2ccccc21` (single isomer, unassigned) [Example 12a]: 47.4% and 6.90.
As to `C[C@]12Cc3cnn(-c4ccc(F)cc4)c3C=C1CC[C@@]2(CO)CC(O)C1CCCCC1` (single isomer, unassigned) [Example 18b, 1-cyclohexyl-2-[(4αS)-1-(4-fluorophenyl)-5-(hydroxymethyl)-4α-methyl-1,4,4α,5,6,7-hexahydrocyclopenta[f]indazol-5-yl]ethanol], the “Transactivation A549 Cells GRAMMER Emax (%)” value worked out at 56.2% and the pEC50 is 7.22.
For `COc1cccnc1C(O)C[C@]1(CO)CCC2=Cc3c(cnn3-c3cccc(F)c3)C[C@@]21C` (single isomer, unassigned) [Example 26a], in that order: 24.8% and 6.84.
In the case of `C[C@]12Cc3cnn(-c4ccc(F)cc4)c3C=C1CC[C@@]2(CO)CC(O)c1cc(F)cc(F)c1` (stereo partly drawn) [Example 9, 1-(3,5-difluorophenyl)-2-[(4αS,5R)-1-(4-fluorophenyl)-5-(hydroxymethyl)-4α-methyl-1,4,4α,5,6,7-hexahydrocyclopenta[f]indazol-5-yl]ethanol], the Emax is 80.3% and the pEC50 is 8.49.
The matching figures for `CC(O)(C[C@]1(CO)CCC2=Cc3c(cnn3-c3ccc(F)cc3)C[C@@]21C)c1cccnc1` (single isomer, unassigned) [Example 25a]: 7.9% and 6.54.
The matching figures for `C[C@]12Cc3cnn(-c4ccc(F)cc4)c3C=C1CC[C@@]2(CO)CC(O)C(F)(F)F` (single isomer, unassigned) [Example 28a]: 60.4% and 6.97.
Consider `C[C@]12Cc3cnn(-c4ccc(F)cc4)c3C=C1CC[C@@]2(CO)CC(O)c1ccccn1` (single isomer, unassigned) [Example 1b], for which the “Transactivation A549 Cells GRAMMER Emax (%)” value turned out to be 56.0% and the pEC50 was 7.58.
As for `C[C@]12Cc3cnn(-c4ccc(F)cc4)c3C=C1CC[C@@]2(CO)CC(O)c1ccncc1` (single isomer, unassigned) [Example 17b], the “Transactivation A549 Cells GRAMMER Emax (%)” value worked out at 35.6% and the pEC50 is 7.11.
For `C[C@]12Cc3cnn(-c4ccc(F)cc4)c3C=C1CC[C@@]2(CO)CC(O)c1ccccc1Cl` (single isomer, unassigned) [Example 3a], the Emax was 127% and the pEC50 was 7.41.
Turning to `C[C@]12Cc3cnn(-c4ccc(F)cc4)c3C=C1CC[C@@]2(CO)CC(O)c1cc(F)cc(Cl)c1` (single isomer, unassigned) [Example 6b], the “Transactivation A549 Cells GRAMMER Emax (%)” value worked out at 84.7% and the pEC50 is 6.91.
On to `C[C@]12Cc3cnn(-c4ccc(F)cc4)c3C=C1CC[C@@]2(CO)CC(O)c1ccncc1` (single isomer, unassigned) [Example 17a], for which the Emax came to 26.4% and the pEC50 is 6.99.
